Test results as given in US20020131953A1, “In situ langerhans cell vaccine” (UT SOUTHWESTERN MEDICAL CENTER, priority 2001, published 2002).

B1: MIP-1γ (protein, UniProt P51670 22-122, looked up)
C-C motif chemokine 9: QITHATETKEVQSSLKAQQGLEIEMFHMGFQDSSDCCLSYNSRIQCSRFIGYFPTSGGCTRPGIIFISKRGFQVCANPSDRRVQRCIERLEQNSQPRTYKQ
notes: chemokine tested for promoting migration of mature DC
B2: MIP-1α (protein, UniProt P10147 24-92, looked up)
C-C motif chemokine 3: SLAADTPTACCFSYTSRQIPQNFIADYFETSSQCSKPGVIFLTKRSRQVCADPSEEWVQKYVSDLELSA
notes: as for B1
B3: RANTES (protein, UniProt P13501 24-91, looked up)
C-C motif chemokine 5: SPYSSDTTPCCFAYIARPLPRAHIKEYFYTSGKCSNPAVVFVTRKNRQVCANPEKKWVREYINSLEMS
notes: as for B1

Columns and labels:
[1] = tested on: Langerhans cells (LC); assay: LC entrapment after subcutaneous rod implantation and DNFB painting; type: in vivo, BALB/c mice; settings: 24 hours after DNFB painting over BSA rod implantation sites
Method: After 24 hr pre-incubation in PBS at 37° C., a MIP-3β or BSA rod was cut into 4 short pieces (2.5 mm length) and implanted subcutaneously into a mouse with 200 μl of PBS using a 20G1/2 needle.
In an attempt to induce LC maturation and elevate MIP-3β responsiveness, DNFB was applied over the implantation sites.

[2] = tested on: Spleen DC; assay: In vitro Transwell migration of spleen DC toward chemokine; type: cell-based, BALB/c mice; settings: for % specific migration: spleen cell migration, transwell, 2 hr incubation at 37° C.
Method: (§1) Several chemokines were tested in an in vitro transwell system for their ability to promote migration of mature DC, including MIP-1α, MIP-1γ, MCP-3, RANTES and MIP-3β. In vitro cell migration assays were performed by using 6.5 mm Transwell units (Costar, Cambridge, Mass.). Spleen DC or T cells prepared from BALB/c mice were placed in the upper chamber of the transwell system and chemokine (e.g., MIP-3β) was added to the lower chamber of the transwell system. After 2 hr incubation at 37° C., the migratory cells were harvested from the lower chambers, and the % DC (or T cell) migration was calculated by dividing the output CD11c^+ (or CD3^+) cells by the input CD11c^+ (or CD3^+) cells.

[3] = tested on: T cells; assay: In vitro Transwell migration of T cells toward chemokine; type: cell-based, BALB/c mice; settings: relative to mature DCs (FIG. 1a)
Method: as §1

[4] = tested on: T cell migration; assay: Biological activity of MIP-3β released from EVA rods (T cell chemotaxis assay); type: cell-based; settings: MIP-3β liberated from the EVA polymer, Day 3 samples tested at 33 or 100% (vol/vol)
Method: To determine whether the released MIP-3β was biologically active, the same samples as used above were tested at 33 or 100% (vol/vol) for their biological activities to promote T cell migration (FIG. 1e). DNFB-induced LC emigration was examined by counting the numbers of IA^+ and DEC205^+ epidermal cells after whole mount epidermal staining. See Mummert et al., 2000, J. Exp. Med. 192:769-779.

Molecule | % specific migration [2] | also measured
O=[N+]([O-])c1ccc(F)c([N+](=O)[O-])c1 [DNFB, dinitroflourobenzene] |  | reduction in surface LC densities [1]: 25-30%
MIP-3β | 13.2% | concentrations promoting migration of mature DCs ([2]; chemokine in lower chamber (FIG. 1a)): 3 to 10 ng/mL; potency in promoting migration of CD11c-positive splenic dendritic cell fractions ([2]; compared among the chemokines tested): most potent; concentrations required for recruiting T cells [3]: much higher concentrations were required; biological activity in the chemotaxis assay [4]: significant biological activities
monocyte chemotactic protein-3 [MCP-3] | 18.2% | 
B1 | 5.4% | 
B2 | 8.2% | 
B3 | 9.1% | 
